From BigSolDB 2.1

COC(=O)[C@H](N)c1ccccc1.Cl
solubility (mole fraction)
Details | in acetone | in ethanol | in ethyl acetate | in methanol | in toluene | in water
283.15 K | 1.3e-05 | 0.015 | 3.9e-05 | 0.076 | 9e-06 | 0.045
293.15 K | 3.6e-05 | 0.022 | 8.5e-05 | 0.081 | 1.5e-05 | 0.058
303.15 K | 7.8e-05 | 0.028 | 0.00015 | 0.085 | 2.3e-05 | 0.068
313.15 K | 0.00013 | 0.033 | 0.00021 | 0.09 | 3.3e-05 | 0.077
323.15 K | 0.00018 | 0.037 | 0.00025 | 0.096 | 4.4e-05 | 0.086
333.15 K | 0.00025 | 0.042 | 0.00029 | 0.1 | 5.6e-05 | 0.095
